Measured values taken from US20050282757A1, “Peptide boronic acid compounds useful in anticoagulation” (Trigen Limited, priority 2002, published 2005).

Experiments:
Plasmin = Plasmin (Homo sapiens, UniProt P00747); experiment: Plasmin inhibition, Method B (Example 52); format: biochemical; settings: Plasmin relative to Thrombin
Description: 50 μl Plasmin (75 ng/ml in assay buffer) and 20 μl vehicle or compound solution were added to 110 μl assay buffer (100 mM Na orthophosphate (80% Na2HPO4 and 20% NaH2PO4), 200 mM NaCl, 0.5% PEG 6000, 0.02% Na azide, pH 7.5) and incubated for 5 minutes at 37° C.

[1] = Solubility of TRI 50c monosodium salt at different pH values; format: physicochemical
Description: It may be desirable to make aqueous solutions of boronic acid drugs for administering them. […] However, a solution with a pH of 9.5 may be unacceptable or undesirable. Accordingly, a pharmaceutically acceptable organic acid may be included in the particulate formulation in an amount selected to reduce the pH to a value at which the solution is more acceptable but at which a solution of drinkable quantity (e.g. about 50 ml to about 150 ml) may be formed by reconstituting the particulate formulation. As the organic acid may be mentioned citric acid, tartaric acid or malic acid, for example. In many instances, citric acid is chosen.
In a first series of experiments, this amount of the salt was dissolved in 50 ml water to form a solution of approximately pH 9.5. Dilute aqueous HCl was added to determine how much the pH could be reduced before precipitation occurred.
In a second series of experiments, the same amount of the salt was dissolved in 150 ml water, and citric acid was added. […] Since acid solutions tend to be more palatable than alkaline ones, and citric acid is a common flavouring agent, this behaviour of the salt is highly beneficial. […] In general, it is contemplated that the boronate will be formulated to form a reconstituted solution having a pH of from 4 to 8, e.g. 4 to 7, optionally 5 to 6.

[2] = Stability assay before and after drying, HPLC-PDA (Example 34); format: physicochemical; settings: for Amount: 5 mg in 5 mL
Description: An assay of TRI 50c and its sodium and lysine salts before and after drying.
For sample analysis, 5 mg of dried and non-dried material was weighed in a 5 mL volumetric flask and dissolved in 1 mL acetonitrile and filled up with demineralised water to 5 mL.
The quantitative evaluation was performed using an HPLC-PDA method.

thrombin time and APTT = experiment: Intravenous administration in beagle dogs, PK/PD (Example 36); format: in vivo; settings: 1.0 mg/kg i.v.; for thrombin time at pharmacodynamic C max: 2 minutes post dose, base line 14.3 seconds, monosodium salt
Description: Blood samples were taken into 3.8% tri-sodium citrate (1+8) at pre dose, 2, 5, 10, 20, 30, minutes post dose and then at 1, 2, 3, 4, 6, 8, 12 and 24 hours post dose. Plasma was prepared by centrifugation and frozen at minus 20° C. pending analysis.

thrombin time (TT) = experiment: Intravenous administration into humans (Examples 40 and 46); format: in vivo
Description: The test consisted of three groups, each of six males. From each group 5 men were given the active ingredient and 1 was given a placebo.
Total I.V. administered doses were: • 82 mg (7 mg intravenous bolus (over 30s) followed by an infusion of 25 mg/h for 3 hours). • 130 mg (10 mg intravenous bolus (over 30s) followed by an infusion of 40 mg/h for 3 hours). • 120 mg (by infusion of 40 mg/h for 3 hours). […] Within 30 minutes after cessation of infusion there was a fall to a level at which clinically significant anticoagulation is not expected.

[3] = tested on: dynamic coagulation markers; experiment: Simulated mitral valve repair on hypothermic CPB in dogs (Example 48); format: in vivo, beagle dogs; settings: intravenous
Description: Following a dose ranging study in conscious dogs, six beagle dogs were placed on CPB and underwent a simulated mitral valve repair. A range of dynamic coagulation markers were measured, including thrombin clotting time (TT), activated partial thromboplastin time (APTT), activated clotting time (ACT), ecarin clotting time (ECT), whole blood thrombin clotting time, platelet counts and function tests. In addition, pre and post-operative echocardiograms and intra-operative blood loss were evaluated. […] By virtue of its predictable anticoagulant efficacy and controlled duration of action, TGN 255 offers potential in on pump and off pump coronary bypass procedures.

[4] = Comparative storage stability of sodium and calcium salts (Example 49); format: physicochemical; settings: for Tri50c (w/w %, LOD corr.): corrected for loss on drying
Source text: In both studies the active pharmaceutical ingredient was stored in grip sealed double bags within a PE/PP screw cap closed cylinder.

[5] = Excretion of administered dose; settings: in vivo
Source text: It will be appreciated that such short duration of action (rapid offset of activity) achieved by a boronic acid is well suited for the prevention of thrombosis in intermittent apheresis procedures, and that oral administration is particularly useful in the case of elective intermittent apheresis procedures. In one class of embodiments, the apheresis procedure is haemodialysis (strictly CIHD); in another, the procedure is not haemodialysis.

[6] = dry (1 week in desiccator over phosphorus pentoxide)

Sequence of Plasmin (P00747 581-810 limits assumed, species assumed): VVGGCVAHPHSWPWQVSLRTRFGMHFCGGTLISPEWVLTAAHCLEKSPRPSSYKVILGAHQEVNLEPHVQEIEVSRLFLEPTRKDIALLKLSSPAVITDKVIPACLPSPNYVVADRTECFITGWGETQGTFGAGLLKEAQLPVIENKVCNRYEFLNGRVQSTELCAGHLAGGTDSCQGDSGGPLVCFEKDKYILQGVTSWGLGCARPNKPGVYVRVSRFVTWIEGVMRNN
Sequence of Plasmin (P00747 97-580 limits assumed, species assumed): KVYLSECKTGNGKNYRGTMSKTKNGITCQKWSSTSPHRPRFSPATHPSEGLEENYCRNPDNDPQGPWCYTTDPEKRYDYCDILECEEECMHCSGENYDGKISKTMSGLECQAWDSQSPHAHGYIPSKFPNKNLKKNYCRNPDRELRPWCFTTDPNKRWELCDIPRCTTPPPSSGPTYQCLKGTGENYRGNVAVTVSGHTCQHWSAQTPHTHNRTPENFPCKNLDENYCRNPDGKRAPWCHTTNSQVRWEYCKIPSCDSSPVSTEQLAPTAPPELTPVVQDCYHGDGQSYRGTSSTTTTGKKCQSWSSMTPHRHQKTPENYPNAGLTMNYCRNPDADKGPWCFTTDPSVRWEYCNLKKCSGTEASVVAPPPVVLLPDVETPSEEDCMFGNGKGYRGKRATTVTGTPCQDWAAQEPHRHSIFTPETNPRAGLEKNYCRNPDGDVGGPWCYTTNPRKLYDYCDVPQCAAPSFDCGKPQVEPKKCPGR

## COCCC[C@H](NC(=O)[C@@H]1CCCN1C(=O)[C@@H](Cc1ccc(F)cc1)NC(=O)OCc1ccccc1)B([O-])O.[Na+] [TRI 50f]
Plasmin
  Selectivity: >1000

## COCCC[C@H](NC(=O)[C@@H]1CCCN1C(=O)[C@@H](Cc1ccccc1)NC(=O)OCc1ccccc1)B(O)O.[Na+] [TRI 50c monosodium salt, Cbz-(R)-Phe-(S)-Pro-(R)-Mpg-B(OH)2 monosodium salt]
[1]; pH of about 9.5
  concentration of boronate salt solution that can be formed: up to 600 mg/ml
[1]; salt equivalent to 600 mg TRI 50c in 50 ml water, dilute aqueous HCl added
  pH below which the salt tended to precipitate: below 9
[1]; salt equivalent to 600 mg TRI 50c in 150 ml water, citric acid added
  pH reached before precipitation occurred: 3.7-3.8
[2]; [6]
  Purity: 98.81 % area
  Amount: 1024 µg/mL
[2]; non-dried
  Purity: 98.61 % area
  Amount: 1005.8 µg/mL
Thrombin time and APTT; listed as TRI 50c sodium salt
  thrombin time at pharmacodynamic C max: 154 s
Thrombin time and APTT
  thrombin time at pharmacodynamic C max: 154.4 s
Thrombin time and APTT; one hour post dose
  Thrombin time: 26 s
Thrombin time and APTT; post dose
  elevation in the APTT: 1.3 times
Thrombin time and APTT; total duration of the study
  tolerance: tolerated well with no adverse events
Thrombin time and APTT; two minutes following dosing
  Thrombin clotting time elevation above base line: 10.8 times
Thrombin time and APTT; from 19 seconds
  APTT post dose: 25 s
Thrombin time (TT); after termination of intravenous administration
  time for plasma concentrations of the active principle to return to tolerably low levels: ≤ 30 min
Thrombin time (TT); i.v. infusion
  time after cessation of infusion to fall to a level at which clinically significant anticoagulation is not expected: ≤ 30 min
Thrombin time (TT); i.v. infusion for 3 hours
  distribution phase, time after the end of infusion: ≤ 30 min
Thrombin time (TT); intravenous infusion
  effect on thrombin time (TT): rapid, dose-related increase in the thrombin time (TT)
Thrombin time (TT); plasma, i.v.
  overall terminal elimination half life: about 4 hours
Thrombin time (TT); single i.v. doses 82, 130, 120 mg
  safety assessments: No clinically significant findings
Thrombin time (TT); study period of 24 hours, any dose
  adverse clinical events: no adverse clinical events of either a general or cardiovascular nature
[3]
  anticoagulation during bypass and surgery: excellent anticoagulation during bypass and surgery with little bleeding
[4]; T = 0
  Appearance: Powdery
  Color: White
  Tri50c (w/w %): 101.1 w/w %
  Tri50c (w/w %, LOD corr.): 101.5 w/w %
[4]; T = 1, 25° C./60% r.h.
  Appearance: powdery
  Color: white
  Tri50c (w/w %): 99.5 w/w %
  Tri50c (w/w %, LOD corr.): 103.6 w/w %
[4]; T = 1, 40° C./75% r.h.
  Appearance: powdery
  Color: white
  Tri50c (w/w %): 90.3 w/w %
  Tri50c (w/w %, LOD corr.): 94.5 w/w %
[4]; T = 1, −20° C.
  Appearance: powdery
  Color: white
  Tri50c (w/w %): 103.1 w/w %
  Tri50c (w/w %, LOD corr.): 104.3 w/w %
[4]; T = 3, 25° C./60% r.h.
  Appearance: powdery
  Color: white
  Tri50c (w/w %): 95.3 w/w %
  Tri50c (w/w %, LOD corr.): 100.4 w/w %
[4]; T = 3, 40° C./75% r.h.
  Appearance: viscous
  Color: brown
  Tri50c (w/w %): 48.6 w/w %
  Tri50c (w/w %, LOD corr.): 52.2 w/w %
[4]; T = 3, −20° C.
  Appearance: powdery
  Color: white
  Tri50c (w/w %): 102.5 w/w %
[4]; T = 12, 25° C./60% r.h.
  Tri50c (w/w %): 70.5 w/w %
  Tri50c (w/w %, LOD corr.): 71.2 w/w %
[5]
  administered dose excreted as TRI 50c species (acid and corresponding boronate species): 14%
